From ChEMBL document CHEMBL1201862, “PubChem BioAssay data set” (2004)
Where “and” joins values, the source holds several entries; their conditions need not be identical. Equal values may be shown once.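 Test compounds were applied to cells in 96-well plates for 48 hours at 5 doses. GI50 = concentration required for 50% inhibition of growth.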 Calls of active or inactive are those of the source. Cut-off read from the data, not from the text of the source: active = GI50 up to about 1.1 µM and inactive = higher.

Tests used:
Test in all cases: NCI-60 cell line screen, 48 h
[1] = test system: RXF 393
[2] = test system: DU-145
[3] = test system: SR
[4] = test system: T47D
[5] = test system: KM12
[6] = test system: PC-3
[7] = test system: M14
[8] = test system: HL-60
[9] = test system: BT-549
[10] = test system: MDA-MB-231
[11] = test system: NCI-H460
[12] = test system: HT-29
[13] = test system: HOP-62
[14] = test system: COLO 205
[15] = test system: CAKI-1
[16] = test system: NCI-H522
[17] = test system: RPMI-8226
[18] = test system: LOX IMVI
[19] = test system: SNB-75

Row | Structure (SMILES) | GI50 [1] | GI50 [2] | GI50 [3] | GI50 [4] | GI50 [5] | GI50 [6] | GI50 [7] | GI50 [8] | GI50 [9] | GI50 [10] | GI50 [11] | GI50 [12] | GI50 [13] | GI50 [14] | GI50 [15] | GI50 [16] | GI50 [17] | GI50 [18] | GI50 [19]
1 | COc1cc(N(C)C)c(OC)cc1C=C1C=CC=C1 | > 100 µM (inactive) | > 100 µM (inactive) | 61.2 µM (inactive) | 41.3 µM (inactive) | > 100 µM (inactive) | > 100 µM (inactive) | > 100 µM (inactive) | 36.4 µM (inactive) | > 100 µM (inactive) | > 100 µM (inactive) | > 100 µM (inactive) | 60.4 µM (inactive) | > 100 µM (inactive) | – | – | – | – | – | –
2 | COC(=O)c1ccc(-c2nc(C#N)c(N)o2)cc1 | > 100 µM (inactive) | > 100 µM (inactive) | > 100 µM (inactive) | > 100 µM (inactive) | > 100 µM (inactive) | > 100 µM (inactive) | > 100 µM (inactive) | – | 23.8 µM (inactive) | 27.1 µM (inactive) | > 100 µM (inactive) | > 100 µM (inactive) | 67.9 µM (inactive) | > 100 µM (inactive) | > 100 µM (inactive) | 39.4 µM (inactive) | > 100 µM (inactive) | > 100 µM (inactive) | –
3 | CC1OC(OC2C(OC(=O)[C@]34CCC(C)(C)C[C@H]3C3=CC[C@@H]5[C@@]6(C)CC[C@H](OC7OC(CO)C(O)C(O)C7OC7OC(CO)C(O)C(O)C7O)C(C)(C)[C@@H]6CC[C@@]5(C)[C@]3(C)CC4)OCC(O)C2O)C(O)C(O)C1OC1OCC(O)C(OC2OCC(O)C(O)C2O)C1O (some centres not stated) | 9.86 µM (inactive) and 6.75 µM (inactive) | 8.11 µM (inactive) and 7.05 µM (inactive) | 2.19 µM (inactive) and 3.06 µM (inactive) | 4.13 µM (inactive) and 6.3 µM (inactive) | 3.74 µM (inactive) and 3.59 µM (inactive) | 6.62 µM (inactive) and 5.32 µM (inactive) | 1.97 µM (inactive) and 1.79 µM (inactive) | – | 3.51 µM (inactive) and 3.82 µM (inactive) | 3.14 µM (inactive) and 2.84 µM (inactive) | 15.7 µM (inactive) and 17.7 µM (inactive) | 3.02 µM (inactive) and 3.33 µM (inactive) | – | 1.78 µM (inactive) and 2.43 µM (inactive) | 3.6 µM (inactive) and 4 µM (inactive) | 2.65 µM (inactive) and 2.49 µM (inactive) | 3.98 µM (inactive) and 4.43 µM (inactive) | 9.98 µM (inactive) and 11.1 µM (inactive) | 7.93 µM (inactive) and 5.86 µM (inactive)
4 | O=C(O)Cn1ncn(NC(=O)Cc2ccccc2)c1=S | – | > 10 µM (inactive) | > 10 µM (inactive) | > 10 µM (inactive) | > 10 µM (inactive) | > 10 µM (inactive) | > 10 µM (inactive) | – | > 10 µM (inactive) | > 10 µM (inactive) | > 10 µM (inactive) | > 10 µM (inactive) | > 10 µM (inactive) | > 10 µM (inactive) | > 10 µM (inactive) | > 10 µM (inactive) | > 10 µM (inactive) | > 10 µM (inactive) | > 10 µM (inactive)
5 | COC(=O)/N=[N+](\[O-])C(c1ccc(OC)cc1)C1CCCCC1 (configuration not stated) | 9.18 µM (inactive) | 1.86 µM (inactive) | – | 0.303 µM (active) | 2.39 µM (inactive) | 1.69 µM (inactive) | 2.99 µM (inactive) | 0.787 µM (active) | 8.39 µM (inactive) | 3 µM (inactive) | 1.39 µM (inactive) | 1.29 µM (inactive) | 4.84 µM (inactive) | 0.611 µM (active) | 2.12 µM (inactive) | 1.03 µM (active) | 0.948 µM (active) | 3.33 µM (inactive) | 5.22 µM (inactive)
6 | CC(C)=CCC(O)[C@](C)(O)[C@H]1[C@H](O)C[C@@]2(C)[C@@H]3CCc4cc(O)c(OC5OC(CO)C(O)C(O)C5O)cc4C3(C)C(=O)C[C@]12C (some centres not stated) | > 100 µM (inactive) | > 100 µM (inactive) | > 100 µM (inactive) | > 100 µM (inactive) | > 100 µM (inactive) | > 100 µM (inactive) | > 100 µM (inactive) | – | > 100 µM (inactive) | > 100 µM (inactive) | > 100 µM (inactive) | > 100 µM (inactive) | > 100 µM (inactive) | > 100 µM (inactive) | > 100 µM (inactive) | > 100 µM (inactive) | – | – | > 100 µM (inactive)
7 | CC(CCOc1ccc2ccc(=O)oc2c1)C1=CC(=O)C(C)(C)O1 (configuration not stated) | – | 2.39 µM (inactive) | 0.612 µM (active) | 2.02 µM (inactive) | 2.17 µM (inactive) | 4.03 µM (inactive) | 3.92 µM (inactive) | 1.85 µM (inactive) | 2.72 µM (inactive) | 3.15 µM (inactive) | 1.86 µM (inactive) | 3.3 µM (inactive) | 5.12 µM (inactive) | 2.42 µM (inactive) | 2.86 µM (inactive) | 1.51 µM (inactive) | 1.95 µM (inactive) | 2.23 µM (inactive) | –
8 | CC(=O)Oc1ccc(-c2cc3ccccc3oc2=O)cc1OC(C)=O | – | 24.9 µM (inactive) | 8.63 µM (inactive) | 36.2 µM (inactive) | 11.8 µM (inactive) | 47.5 µM (inactive) | 21.6 µM (inactive) | 1.89 µM (inactive) | 35.2 µM (inactive) | 28.6 µM (inactive) | 22.4 µM (inactive) | 36 µM (inactive) | 43.7 µM (inactive) | 43.5 µM (inactive) | – | 3.78 µM (inactive) | 12.7 µM (inactive) | 30.5 µM (inactive) | 26.9 µM (inactive)
